US20040204409A1, “Bicyclic compounds as NR2B receptor antagonists” (priority 2003, published 2004)

Target: T1, NR2B receptor (Rattus norvegicus, UniProt P35439+Q00960)
T1 construct: Membranes were prepared by homogenization of forebrain of male CD rats; from tissue; host or cells: rat forebrain P2 membrane
Assay: NR2B Binding Assay (competition with [3H]-1-[(1S*,2S*)-2-hydroxy-2-(4-hydroxyphenyl)-1-methylethyl]-4-phenylpiperidin-4-ol on P2 membrane)
Details: forebrain P2 membrane of male CD rats, 5 nM radioligand, 60 minutes at room temperature, pH7.4; read-out: Ki value with respect to binding affinity for the NR2B receptor
Description: The activity of the bicyclic amide compounds of the present invention, as NR2B antagonists, is determined by their ability to inhibit the binding of NR2B subunit at its receptor sites employing radioactive ligands.
The NR2B antagonist activity of the bicyclic amide compounds is evaluated by using the standard assay procedure described in, for example, J. Pharmacol., 331, pp117-126, 1997. This method essentially involves determining the concentration of the individual compound required to reduce the amount of radiolabelled NR2B ligands by 50% at their receptor sites, thereby affording characteristic IC50 values for each compound tested. More specifically, the assay is carried out as follows. […]
For the saturation assay, receptor saturation was determined by incubating [^3H]-1-[(1S*,2S*)-2-hydroxy-2-(4-hydroxyphenyl)-1-methylethyl]-4-phenylpiperidin-4-ol and 50 μg protein of P2 membrane for 60 minutes at room temperature in a final 100 μl of incubation buffer (50 mM Tris HCl, pH7.4). Total and non-specific bindings (in the presence of 10 μM of unlabeled 1-[(1S*,2S*)-2-hydroxy-2-(4-hydroxyphenyl)-1-methylethyl]-4-phenylpiperidin-4-ol) were determined in a range of [3H]-1-[(1S*,2S*)-2-hydroxy-2-(4-hydroxyphenyl)-1-methylethyl]-4-phenylpiperidin-4-ol concentrations (0.625 nM to 60 nM). […]

T1 sequence (Q00960 27-1482, other chains not shown): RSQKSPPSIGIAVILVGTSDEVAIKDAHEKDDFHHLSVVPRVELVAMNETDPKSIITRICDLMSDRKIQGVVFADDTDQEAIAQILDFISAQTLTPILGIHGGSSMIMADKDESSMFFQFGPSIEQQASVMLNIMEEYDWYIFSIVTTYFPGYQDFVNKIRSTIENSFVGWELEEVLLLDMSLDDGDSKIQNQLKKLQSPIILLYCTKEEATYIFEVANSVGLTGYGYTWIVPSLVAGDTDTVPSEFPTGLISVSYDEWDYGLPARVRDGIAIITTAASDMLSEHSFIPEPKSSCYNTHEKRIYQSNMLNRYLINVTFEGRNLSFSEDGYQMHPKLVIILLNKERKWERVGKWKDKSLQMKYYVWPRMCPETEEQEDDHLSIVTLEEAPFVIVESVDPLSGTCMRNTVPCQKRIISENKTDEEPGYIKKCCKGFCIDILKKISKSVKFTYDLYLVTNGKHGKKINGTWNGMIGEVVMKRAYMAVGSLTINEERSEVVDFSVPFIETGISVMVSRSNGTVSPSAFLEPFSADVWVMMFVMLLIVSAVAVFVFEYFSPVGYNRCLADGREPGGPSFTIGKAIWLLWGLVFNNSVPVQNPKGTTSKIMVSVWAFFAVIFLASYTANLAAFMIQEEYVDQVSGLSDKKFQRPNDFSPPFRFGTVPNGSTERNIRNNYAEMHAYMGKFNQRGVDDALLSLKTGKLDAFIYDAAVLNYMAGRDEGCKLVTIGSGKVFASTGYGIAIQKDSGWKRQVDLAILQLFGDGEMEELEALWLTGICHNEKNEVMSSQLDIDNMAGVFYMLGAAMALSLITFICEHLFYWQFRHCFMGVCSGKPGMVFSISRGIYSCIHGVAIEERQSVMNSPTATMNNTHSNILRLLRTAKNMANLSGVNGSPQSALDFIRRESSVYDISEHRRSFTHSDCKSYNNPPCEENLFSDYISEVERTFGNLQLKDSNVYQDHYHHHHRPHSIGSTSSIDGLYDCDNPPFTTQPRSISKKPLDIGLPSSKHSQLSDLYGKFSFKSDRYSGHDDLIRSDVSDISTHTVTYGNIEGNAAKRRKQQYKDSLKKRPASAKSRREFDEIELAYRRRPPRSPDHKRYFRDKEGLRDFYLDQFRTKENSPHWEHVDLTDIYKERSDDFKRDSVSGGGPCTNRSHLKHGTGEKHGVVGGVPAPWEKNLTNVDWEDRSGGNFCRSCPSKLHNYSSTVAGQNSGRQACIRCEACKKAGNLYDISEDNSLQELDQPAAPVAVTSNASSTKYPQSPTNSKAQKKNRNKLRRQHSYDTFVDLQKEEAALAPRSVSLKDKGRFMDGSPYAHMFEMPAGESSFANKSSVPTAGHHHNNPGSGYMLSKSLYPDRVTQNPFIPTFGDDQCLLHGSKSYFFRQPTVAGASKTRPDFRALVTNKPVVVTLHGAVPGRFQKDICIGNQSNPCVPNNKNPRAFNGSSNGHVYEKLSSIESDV

Q: With `O=C(NCc1ccc2[nH]c(Cc3ccccc3)cc2c1)c1ccc(O)cc1` [Example 8, N-[(2-benzyl-1H-indol-5-yl)methyl]-4-hydroxybenzamide] as the compound, how does the Ki read?
A: 2 nM
